Data set [1] has as its system Coxsackievirus A9. Description: microbe, parasite or virus in culture. Type of data set: cell-based. Conditions: read-out: EC50 COX A9.
Data set [2] concerns Poliovirus 1. The data set is described as follows: microbe, parasite or virus in culture. Conditions: read-out: EC50 PV1. Format: cell-based.
Data set [3] relates to Echovirus 11. Description: microbe, parasite or virus in culture. Format: cell-based. Conditions: read-out: EC50 ECHO11.
Data set [4] deals with Echovirus 7. The data set is described as follows: microbe, parasite or virus in culture. Format: cell-based. As to conditions: read-out: EC50 ECHO07.
Data set [5] deals with Coxsackievirus B1. Description: microbe, parasite or virus in culture. Format: cell-based. As to conditions: read-out: EC50 CVB1.
In data set [6] the test system is Echovirus 25. The data set is described as follows: microbe, parasite or virus in culture. Type of data set: cell-based. As to conditions: read-out: EC50 ECHO25.
The subject of data set [7] is Coxsackievirus B2. The data set is described as follows: microbe, parasite or virus in culture. Type of data set: cell-based. As to conditions: read-out: EC50 CVB2.
Data set [8] relates to LLC cells.
The test system of data set [9] is RD cells.
Data set [10] relates to Coxsackievirus B5. Description: microbe, parasite or virus in culture. Format: cell-based. As to conditions: read-out: EC50 CVB5.
Data set [11] has as its system Coxsackievirus B3-H3. The data set is described as follows: microbe, parasite or virus in culture. Format: cell-based. Conditions: read-out: EC50 CVB3-H3.
For data set [12], the system named is HeLa-RW cells.
Data set [13] deals with Enterovirus D68/US/KY/14-18953. The data set is described as follows: Antiviral assay, Enterovirus D68 strain US/KY/14-18953 in RD cells. Format: cell-based.
The test system of data set [14] is Echovirus 30. The data set is described as follows: microbe, parasite or virus in culture. Conditions: read-out: EC50 ECHO30. Type of data set: cell-based.
In data set [15] the test system is Enterovirus 71. Description: microbe, parasite or virus in culture. As to conditions: read-out: EC50 EV71. Format: cell-based.
The test system of data set [16] is Enterovirus D68/US/Mo/14-18949. The data set is described as follows: Antiviral assay, Enterovirus D68 strain US/Mo/14-18949 in RD cells. Format: cell-based.
The subject of data set [17] is Echovirus 6. Description: microbe, parasite or virus in culture. Conditions: read-out: EC50 ECHO06. Type of data set: cell-based.
For data set [18], the system named is Poliovirus 3. Description: microbe, parasite or virus in culture. Format: cell-based. As to conditions: read-out: EC50 PV3.
The test system of data set [19] is Coxsackievirus B4. Description: microbe, parasite or virus in culture. Type of data set: cell-based. Conditions: read-out: EC50 CVB4.
For data set [20], the system named is Echovirus 9. Description: microbe, parasite or virus in culture. Type of data set: cell-based. As to conditions: read-out: EC50 ECHO09.
For data set [21], the system named is Measles. Description: microbe, parasite or virus in culture. Format: cell-based. As to conditions: read-out: EC50 Measles.
The test system of data set [22] is BHK. Conditions: read-out: CC50 (Powassan test).
Data set [23] concerns Rift Valley virus. Description: organism not typed. Format: cell-based. As to conditions: read-out: EC50 Rift Valley virus.
Data set [24] relates to SARS Coronavirus. Type of data set: cell-based.
The subject of data set [25] is Powassan. Format: cell-based, Powassan virus.
For data set [26], the system named is Vero 76.
Data set [27] deals with Punta Toro virus. The data set is described as follows: microbe, parasite or virus in culture. Type of data set: cell-based. As to conditions: read-out: EC50 Punta Toro virus.
Data set [28] concerns RSV (resp syncitial virus). Description: microbe, parasite or virus in culture. Format: cell-based. Conditions: read-out: EC50 RSV.
Data set [29] concerns Japanese Encephalitis. Format: cell-based.
For data set [30], the system named is MDCK.
For data set [31], the system named is Vero. As to conditions: read-out: CC50 (Yellow Fever Virus test).
The test system of data set [32] is Yellow Fever Virus. The data set is described as follows: microbe, parasite or virus in culture. Conditions: read-out: EC50 Yellow Fever Virus. Type of data set: cell-based.
Data set [33] deals with BHK-21. Conditions: read-out: CC50 (Rabies test).
Data set [34] concerns MA-104.
Data set [35] has as its system Chikungunya. Type of data set: cell-based, chikungunya virus.
The subject of data set [36] is Venezuelan Encephalitis. Format: cell-based, Venezuelan encephalitis virus.
Data set [37] concerns Influenza A H1N1. Description: microbe, parasite or virus in culture. Type of data set: cell-based. Conditions: read-out: EC50 Influenza A H1N1.
Data set [38] has as its system Rabies. Format: cell-based, rabies virus.
For data set [39], the system named is Enterovirus D68/Fermon. The data set is described as follows: Antiviral assay, Enterovirus D68 strain Fermon in RD cells. Type of data set: cell-based.

Each structure is given as a SMILES string. Where two headings read alike, the source gives them in different places.

As usually defined, the EC50 is the concentration at which the effect is half-maximal. Consider `CC(C)n1ncc2c(C(=O)Nc3ccccn3)cc(-c3cccs3)nc21` [JX-040], for which the EC50 was 0.6 µM in [1]; above 10 µM in data set [2]; 0.5 µM in [3]; 0.6 µM in data set [4]; 0.6 µM in data set [5]; 0.6 µM in data set [6]. Further, the EC50 was 0.6 µM in data set [7]; 0.6 µM in [10]; 0.6 µM in data set [11]; 0.27 ± 0.06 µM in data set [13]; below 0.4 µM in [14]; 0.5 ± 0.1 µM in data set [15]. The EC50 in [16] is 0.17 ± 0.03 µM; in data set [17], 0.4 µM; in data set [18] it was above 10 µM; in data set [19] it was 0.5 µM. The CC50 in data set [8], in data set [9] and in [12] was above 200 µM in each case.
For the compound `CNS(=O)(=O)c1cccc(NC(=O)c2cc(-c3cccs3)nc3c2cnn3C(C)C)c1` [JX-053], the EC50 in data set [1] is 0.8 µM; in data set [2] it was above 10 µM; in data set [3] it was 0.6 µM; in data set [4], 0.45 µM; in data set [5] it was 0.6 µM; in data set [7], 0.6 µM. In addition, the 50% effective concentration (EC50) was 0.6 µM in data set [10]; 0.6 µM in data set [11]; 0.2 µM in data set [20]; 0.6 µM in [14]; 0.7 ± 0.1 µM in data set [15]; above 10 µM in data set [18]. For the same compound, the EC50 in [19] is 0.6 µM. The CC50 in data set [8] was 25 µM; in [12], 12 µM.
On to `CC(C)n1ncc2c(C(=O)N(C)c3ccccn3)cc(-c3cccs3)nc21` [JX-074], for which the concentration for a half-maximal effect (EC50) in data set [1], in data set [2], in [3], in data set [4], in [5] and in [6] was above 10 µM each time. Further, the concentration for a half-maximal effect (EC50) in [7], in data set [10], in data set [11], in data set [20], in data set [14] and in data set [15] was above 10 µM each time. The EC50 in data set [17], in data set [18] and in data set [19] was above 10 µM each time.
As to `CC(C)n1ncc2c(C(=O)Nc3ccc(F)cc3)cc(-c3ccsc3)nc21` [JX-030], the EC50 in data set [21] is 20.5 µM; in [1], 1.7 ± 0.1 µM; in [2], above 25 µM; in data set [23], 140 µM; in [4] it was 2.6 ± 0.1 µM; in data set [5] it was 1.6 ± 0.1 µM. The concentration giving a half-maximal response (EC50) is 0.9 µM in [6]; 4.4 µM in [24]; 1.6 ± 0.1 µM in [7]; above 85.8 µM in [25]; 1.2 ± 0.1 µM in data set [10]; 1.3 ± 0.1 µM in data set [11]. In addition, the EC50 in [27] is above 78 µM; in [28], 7 µM; in [29] it was 3.4 µM; in data set [20] it was 1.9 µM; in data set [13], 0.6 µM; in [14], 0.6 µM. In addition, the half-maximal effective concentration (EC50) in [15] is 1.4 ± 0.2 µM; in data set [32], above 11.1 µM; in data set [16], 0.3 µM; in [17], 1.2 ± 0.1 µM; in [35], above 1.3 µM; in [18], above 25 µM. Further, the EC50 in data set [36] is above 9.4 µM; in data set [37], 10.7 µM; in [19], 2.2 ± 0.1 µM; in data set [38], 88.4 µM. The CC50 in data set [22] is above 85.8 µM; in [8], above 100 µM; in data set [9], 25 µM; in data set [26] (read-out: CC50 (Rift Valley virus test), with Rift Valley virus MP-12 test), 169 µM; in data set [26] (read-out: CC50 (SARS Coronavirus test), with SARS Coronavirus Urbani test) it was 18.7 µM; in data set [12], 25 µM. The CC50 in data set [30] is 17.7 µM; in data set [31], 11.1 µM; in data set [33], above 260 µM; in [34], 67.6 µM.
Regarding `CC(C)n1ncc2c(C(=O)Nc3cccnc3)cc(-c3cccs3)nc21` [JX-056], the half-maximal effective concentration (EC50) in [39] was below 0.1 µM; in [1], 0.6 µM; in [2], 10 µM; in data set [3], 0.2 µM; in [4] it was 0.45 µM; in [5] it was 0.6 µM. In addition, the EC50 in data set [7] amounted to 0.6 µM; in data set [10], 0.6 µM; in [11], 0.6 µM; in data set [20] it was 0.2 µM; in data set [13], 0.12 µM; in [14] it was 0.3 µM. Besides, the EC50 in data set [15] was 0.5 ± 0.1 µM; in [16], below 0.1 µM; in data set [18], 10 µM; in data set [19], 0.6 µM. Also, the CC50 in [8] is above 200 µM; in data set [9], 25 µM; in [12] it was 25 µM.
As for `CC(C)n1ncc2c(C(=O)Nc3cccc(S(=O)(=O)N(C)C)c3)cc(-c3cccs3)nc21` [JX-052], the EC50 is 0.57 ± 0.25 µM in data set [39]; 0.8 µM in data set [1]; above 10 µM in [2]; 0.6 µM in [3]; 0.78 µM in [4]; 1.2 µM in data set [5]. Also, the EC50 in [7] turned out to be 1.2 µM; in [10], 1.2 µM; in data set [11], 1.2 µM; in [20], 0.2 µM; in data set [13], 0.53 ± 0.29 µM; in [14], 0.4 µM. Moreover, the EC50 was 0.8 ± 0.1 µM in data set [15], 0.31 ± 0.07 µM in data set [16], above 10 µM in data set [18] and 1.2 µM in [19]. Further, the CC50 in data set [8] is above 200 µM; in [9] it was above 200 µM; in data set [12] it was 12 µM.
Turning to `CC(C)n1ncc2c(C(=O)Nc3ncccn3)cc(-c3cccs3)nc21` [JX-041], the EC50 in [1] is 0.6 µM; in data set [2], above 10 µM; in data set [3], 0.6 µM; in data set [4], 0.7 µM; in data set [5], 0.6 µM; in data set [6], 0.6 µM. The half-maximal effective concentration (EC50) in data set [7] is 0.6 µM; in [10], 0.6 µM; in data set [11], 0.6 µM; in [14], below 0.4 µM; in [15], 0.5 ± 0.1 µM; in data set [17], 0.4 µM. Besides, the EC50 in [18] is above 10 µM; in [19], 0.6 µM. The CC50 in data set [8] was 75 µM; in data set [12] it was 37.5 µM.
As to `CC(C)n1ncc2c(C(=S)Nc3ccc(F)cc3)cc(-c3cccs3)nc21` [JX-046], the EC50 was above 10 µM in data set [1]; above 10 µM in [3]; above 10 µM in [4]; above 10 µM in [6]; above 10 µM in data set [20]; 6.25 µM in [14]. Moreover, the EC50 in [15] and in data set [17] was above 10 µM in each case. The compound also yielded a CC50 in [8] of 20 µM.

Source of the values: patent publication US11787799B2 (priority 2015, dated 2023).
